Each block holds one compound with its values, some of them ahead of it.
Assays:
[1] = UV-VIS spectra of the cryptand in complexation with various ions (Table I); assay type: physicochemical
Procedure: (§1) The UV-VIS spectra of p-nitrophenylazophenol (1.1.0) cryptand in complexation with various ions, i.e. Na^+ K^+, and Li^+, were determined in 1 to 2×10^-4 M solutions of the cryptand in 2 to 50% volume to volume (v/v) DEGMEE in water. A 1×10^-2 M stock solution of the cryptand was prepared in DEGMEE. Typically, the solutions were prepared as follows: for the spectral characteristics in 10% v/v DEGMEE, 0.2 ml of the stock solution was added to 0.8 ml DEGMEE. The diluted cryptand was quantitatively transferred to 9.0 ml of the appropriate reagent and mixed. 1N HCl was used to obtain the acid form (HL) and 1M TMAOH for the base form of the cryptand which is designated in the following tables as L. Tne resulting solutions were scanned from 700 to 300 nm on a Beckman DU-8 spectrophotometer. The spectra of the cation complexes of p-nitrophenylazophenol (1.1.0) cryptand in 10% v/v DEGMEE/1M TMAOH were obtained by adding 0.02 ml LiCl, KCl, NaCl, all 1N to their respective cuvettes containing 2 ml of reagent and scanned from 700 to 300 nm.
Table I records the wavelength maxima and absorptivities of p-nitrophenylazophenol (1.1.0) cryptand when exposed to Na^+, K^+ and Li^+ ions in 10% v/v DEGMEE.

[2] = pKa in 10% DEGMEE-water, determined spectrophotometrically (Table II); assay type: physicochemical; details: for pKa: spectrophotometric
[3] = Ion selectivity and sensitivity of larger cavity cryptand analogs
[4] = Effect of pH on response to cations in 10% v/v DEGMEE (Table III); assay type: physicochemical
Procedure: as §1
A zwitterionic buffer CAPS was used (Table III).

[5] = Effect of non-ionic surfactant on wavelength maxima and absorptivities (first Table IV); assay type: physicochemical; details: Brij-35 and Triton X-100 at 1% w/v; cryptand and its lithium complex
Source text: Non-ionic surfactants are known to interact with monoazo dyes producing a disturbance of the electronic spectrum.

[6] = Effect of organic solvent (DEGMEE) concentration on sensitivity and selectivity; details: 2.5% DEGMEE
Procedure: as §1
However, high concentration of solvent also affects the selectivity; at 25% DEGMEE, interference by 140 mM Na^+ corresponds to 0.1 mM Li^+, which is not acceptable for clinical purposes. The selectivity requirements of the lithium assay are high, in certain cases where the concentration of lithium is near 0.1 mM, the molar ratio of Li^+ :Na^+ is about 1:1500. […]

[7] = Spectral response to lithium (analytical wavelength); assay type: physicochemical
Procedure: as §1

[8] = Selectivity for Li^+ over Na^+ and other cations (slopes of response curves); details: sample to reagent ratio 1:40
Source text: By taking the ratio of the slope of the respective response curves, one obtains approximate selectivity of 4000:1 for Li^+ /Na^+.

[9] = 10% v/v DEGMEE, HL in 1N HCl, L and complexes in 1M TMAOH

λmax 1 [1, 9]: 494 nm
λmax 2 [1, 9]: 363 nm
ε 1 ([1]; absorptivity at λmax 1, 10% v/v DEGMEE): 8,800 M^-1 cm^-1
ε 2 ([1]; absorptivity at λmax 2, 10% v/v DEGMEE): 8,000 M^-1 cm^-1
SMILES: O=[N+]([O-])c1ccc(N=Nc2cc3c(O)c(c2)CCN2CCOCCN(CCOCC2)CC3)cc1 [HL]

pKa [2]: 11.5
SMILES: O=[N+]([O-])c1ccc(N=Nc2cc3c(O)c(c2)CCCN2CCOCCN(CCC3)CCOCC2)cc1 [extended (1.1.0) cryptand]
response to lithium ([3]; extraction mode): very good response to lithium in the extraction mode

pKa [2]: 11.1
SMILES: O=[N+]([O-])c1ccc(N=Nc2cc3c(O)c(c2)CCN2CCOCCOCCN(CCOCCOCC2)CC3)cc1 [(2.2.0) cryptand, reference compound]
selectivity and sensitivity ([3]; effect of increased cavity size): more selective for potassium over sodium and lithium

pKa compared with larger cavity analogs or usual [2]: Higher than usual pKa
pKa [2]: 12.6
wavelength of decrease in absorbance with lithium [7]: 600 nm
wavelength of increase of the lithium complex [7]: 534 nm
SMILES: O=[N+]([O-])c1ccc(N=Nc2cc3c(O)c(c2)CCN2CCOCCN(CCOCC2)CC3)cc1 [p-nitrophenylazophenol (1.1.0) cryptand]
wavelength maxima and absorptivities of acid form ([1]; acid form): two wavelength maxima (Table I) of equivalent absorptivities
shift and absorptivity change with pH [4]: bathochromic shift with concurrent increase in absorptivity
effect of surfactant on λmax and absorptivities [5]: substantial bathochromic shift of the λmax and an increase in the absorptivities
reduction of response to lithium [6]: 25%
selectivity over sodium [8]: almost total selectivity over sodium
